For this test, the system named is Bacillus anthracis. Format: cell-based.

Where “and” joins values, the source holds several entries; their conditions need not be identical. Identical values can stand only once.

`Cc1cc(Cl)ccc1-c1cc(C(O)(C(F)(F)F)C(F)(F)F)sc1-c1ccc(Cl)cc1CO` [DNM94A, 2-(5-(4-chloro-2-(hydroxymethyl)phenyl)-4-(4-chloro-2-methylphenyl)thiophen-2-yl)-1,1,1,3,3,3-hexafluoropropan-2-ol] registered an MIC of 1 µg·mL, an MIC50 of 1 µg·mL and an MIC90 of 1 µg·mL.

For the compound `Cc1cc(Cl)ccc1-c1sc(C(O)(C(F)(F)F)C(F)(F)F)cc1-c1ccc(Cl)cc1CO` [DNM95A, 2-(4-(4-chloro-2-(hydroxymethyl)phenyl)-5-(4-chloro-2-methylphenyl)thiophen-2-yl)-1,1,1,3,3,3-hexafluoropropan-2-ol], the MIC was 1 µg·mL and 0.5 µg·mL; the MIC50 was found to be 1 µg·mL; the MIC90 worked out at 1 µg·mL.

Take colistin [reference compound]: the MIC50 result is on record as “GT64 μg ml” and the MIC90 entry is recorded as “GT64 μg ml”.

The record behind these values is US20250161266A1, “Antibacterial 4.5 Diaryl-Thiophen-2-YL Hexafluoropropan-2-OLS” (priority 2022, published 2025).
